The test system of one series is Puccinia recondita. Put plainly: Puccinia test (wheat)/protective. The note with it: young wheat plants, protective spray, 1500 ppm, evaluation 7-9 days following inoculation. The series is classed as in vivo. An excerpt:
Puccinia Test (Wheat)/Protective • Solvent: 49 parts by weight of N,N-dimethylformamide • Emulsifier: 1 part by weight of alkylaryl polyglycol ether An appropriate preparation of active compound is produced by mixing 1 part by weight of active compound with the stated amounts of solvent and emulsifier and diluting the concentrate with water to the desired concentration. To test for protective activity, young wheat plants are sprayed with the preparation of active compound at the stated application rate. […] Subsequently the plants stand at 80% relative humidity and at a temperature of 20° C. After 7-9 days following inoculation, evaluation takes place.

Series [1] in a line: logP by HPLC on reversed-phase column (C18), EEC Directive 79/831 Annex V.A8. The series is classed as physicochemical. The note with it: for Log P: pH 2.7. As to the method:
The logP values reported in the preparation examples and tables above are determined in accordance with EEC Directive 79/831 Annex V.A8 by means of HPLC (High Performance Liquid Chromatography) on a reversed-phase column (C18). Temperature: 43° C. […] Calibration takes place using unbranched alkan-2-ones (having 3 to 16 carbon atoms) of which the logP values are known (logP values determined on the basis of the retention times, by linear interpolation between two successive alkanones). The lambda-max values were determined on the basis of the UV spectra from 200 nm to 400 nm in the maxima of the chromatographic signals.

Another series concerns Alternaria solani. Nature of the series: Alternaria test (tomato)/protective. Conditions: young tomato plants, protective spray, 1500 ppm, evaluation 7 days following inoculation. In kind it is in vivo. The source says: Alternaria Test (Tomato)/Protective • Solvent: 49 parts by weight of N,N-dimethylformamide • Emulsifier: 1 part by weight of alkylaryl polyglycol ether An appropriate preparation of active compound is produced by mixing 1 part by weight of active compound with the stated amounts of solvent and emulsifier and diluting the concentrate with water to the desired concentration. To test for protective activity, young tomato plants are sprayed with the preparation of active compound at the stated application rate. […] Subsequently the plants stand at 96% relative humidity and a temperature of 20° C. After 7 days following inoculation, evaluation takes place.

The next series relates to Phytophthora infestans. The series is classed as in vivo. The note with it: young tomato plants, protective spray, 1500 ppm, evaluation 7 days following inoculation.
Another series deals with Venturia inaequalis. Nature of the series: Venturia test (apple)/protective. The series is classed as in vivo. The note with it: young apple plants, protective spray, 250 ppm, evaluation 10 days following inoculation. As to the method:
Venturia Test (Apple)/Protective […] An appropriate preparation of active compound is produced by mixing 1 part by weight of active compound with the stated amounts of solvent and emulsifier and diluting the concentrate with water to the desired concentration. To test for protective activity, young plants are sprayed with the preparation of active compound at the stated application rate. […] Subsequently the plants are placed in a greenhouse at approximately 21° C. and approximately 90% humidity. After 10 days following inoculation, evaluation takes place.

Another series has as its system Plasmopara viticola. Put plainly: Plasmopara test (grapevine)/protective. In kind it is in vivo. Conditions: young grapevine plants, protective spray, 250 ppm, evaluation 6 days following inoculation.

What is called Log P is a log measure of how a compound divides between an organic and an aqueous phase. For `Cn1c(=O)c2c(c(=O)n1C)SC(C#N)=C(C#N)S2` [Compound 1], in the series on Puccinia recondita, the Efficacy in % is given as 90%. In addition, the “Log P” value in series [1] is given as 1.39.
For `N#CC1=C(C#N)Sc2c(c(=O)n3n(c2=O)CCCC3)S1` [Compound 2, 5,12-dioxo-5,7,8,9,10,12-hexahydro[1,4]dithiino[2,3-d]pyridazino[1,2-a]pyridazine-2,3-dicarbonitrile], the Efficacy in % in the series on Alternaria solani was 93%; with Phytophthora infestans it was 88%; in the series with Puccinia recondita, 95%; in the series on Venturia inaequalis, 89%; in the series on Plasmopara viticola, 100%. Further, in series [1] (HPLC, C18, 43° C., acidic range pH 2.7 (0.1% aqueous formic acid/acetonitrile), read-out: Log P), the chromatographic logP came out at 1.74.
Turning to `CCn1c(=O)c2c(c(=O)n1CC)SC(C#N)=C(C#N)S2` [Compound 3], the Efficacy in % in the series with Alternaria solani is on record as 86%; in the series on Phytophthora infestans it was 75%; in the series on Puccinia recondita, 95%. The “Log P” value in series [1] is reported as 2.05.
On the same counts, the results for `CCCn1c(=O)c2c(c(=O)n1CCC)SC(C#N)=C(C#N)S2` [Compound 4] are 93%, 94%, 95% and 2.80.
Regarding `CCCn1c(=O)c2c(c(=O)n1CC)SC(C#N)=C(C#N)S2` [Compound 5], the Efficacy in % in the series with Alternaria solani was found to be 93%; in the series on Phytophthora infestans, 94%; in the series on Puccinia recondita, 95%; in the series with Venturia inaequalis, 95%; in the series with Plasmopara viticola, 95%. In addition, in series [1], the “Log P” value turned out to be 2.46.
Take `N#CC1=C(C#N)Sc2c(c(=O)n3n(c2=O)CCOCC3)S1` [Compound 6]: the Efficacy in % in the series on Alternaria solani came to 86%; in the series with Phytophthora infestans it was 75%; with Puccinia recondita it was 95%. Besides, the “Log P” value in series [1] was determined as 1.51.
`CCCn1c(=O)c2c(c(=O)n1C)SC(C#N)=C(C#N)S2` [Compound 7]: the Efficacy in % in the series on Alternaria solani stood at 93%; in the series with Phytophthora infestans, 88%; with Puccinia recondita, 80%. In addition, in series [1], the “Log P” value came out at 2.08.
With `N#CC1=C(C#N)Sc2c(c(=O)n3n(c2=O)CCC3)S1` [Compound 8], the Efficacy in % with Alternaria solani was found to be 86%; in the series with Phytophthora infestans, 75%; in the series on Puccinia recondita, 95%. Moreover, the “Log P” value in series [1] is reported as 1.20.
Consider `CCn1c(=O)c2c(c(=O)n1C)SC(C#N)=C(C#N)S2` [Compound 9], for which the Efficacy in % in the series with Alternaria solani amounted to 86%; with Phytophthora infestans, 94%; in the series with Puccinia recondita it was 95%; in the series with Venturia inaequalis, 86%; in the series with Plasmopara viticola, 93%. Further, the “Log P” value in series [1] worked out at 1.72.
With `Cn1c(=O)c2c(c(=O)n1C)Sc1c(c(=O)n(C)n(C)c1=O)S2` [Compound 10], the “Log P” value in series [1] is 0.74.
